# Laboratory results as given in patent US11262348B2, “Cell-based assays for detection of antibodies or other factors that neutralize uptake of lysosomal enzymes” (BIOMARIN PHARMACEUTICAL INC., priority 2015, dated 2022).
# Entries after “also recorded” stand apart in the source; their conditions may differ.
# Tests used:
# Jurkat cells [1] = assay: Cell-based flow cytometry assay of Alexa488-rhGALNS uptake (screening assay, % SI); parameters: species or system human
# Experimental: Cell uptake of rhGALNS is measured using flow cytometry to determine the amount of fluorophore-conjugated rhGALNS taken up by Jurkat cells. Jurkat cells are a non-adherent human T cell line that express CI-MPR, which binds and targets rhGALNS to the lysosome. rhGALNS neutralizing antibodies (NAb) are detected in samples by a decrease in fluorophore-conjugated rhGALNS uptake (calculated as % inhibition) that exceeds the screening cut point (SCP).
# For a 1:1 dilution, 60 μL per well of controls were added in duplicate or in quadruplicate for 2 sets into the appropriate wells. Similarly, for a 1:1 dilution of sample, 60 μL per well of patient screening samples were added into the appropriate wells. For a 1:1 dilution for the confirmation assay, 60 μL per well of patient confirmation samples were added in duplicate into the corresponding wells. The plate was covered, wrapped in foil and allowed to incubate overnight for 14 to 20 hours at 2-8° C.
# Assay: Prior to the sample incubation step, the cell plates were removed from the CO2 incubator and observed to ensure the cells were healthy and viable. […] After the incubation was completed, the cells were washed in PBS by centrifuging the plate for 6 min at 310×g in a tabletop centrifuge at 14 to 18° C., repeated two to five times as appropriate. After the last wash, the plate was removed from the centrifuge, the cell pellet resuspended in 100 μL viability stain (red fluorescent reactive dye 1:1000 dilution) and tested for viability. Once viability testing was complete, the cells were centrifuged 6 min at 310×g in a tabletop centrifuge at 14 to 18° C.
# Percent Signal Inhibition (% SI) is calculated as [% SI=1—mean median fluorescence intensity (MFI) of sample/mean MFI of control×100]. Confirmatory assay data were analyzed as recovery ratio, defined as mean confirmatory assay MFI of sample/mean screening assay MFI of sample. The titer was calculated as the interpolated dilution factor at which the sample crossed the titer cut point determined by linear regression analysis (Microsoft Excel).
# Jurkat cells [2] = assay: Flow cytometry uptake of labeled GAA with IGF-II tag; format: cell-based, human; settings: for inhibition of uptake: rhGAA-IGF-II uptake into Jurkat cells; for inhibition of rhGAA-IGF-II uptake (in words): Jurkat cells (Jurkat and HepG2 not distinguished)
# Experimental: The assay was also validated for a CI-MPR ligand that is not mannose-6 phosphate. The ability of CI-MPR expressing Jurkat or HepG2 cells were analyzed by flow cytometry for their ability to take up labeled GAA comprising an IGF-II tag, which facilitates binding to the CI-MPR. […] This uptake was inhibited by unlabeled GAA as well as anti-IGFII antibody.
molecule,measurement,setting,value
IGF-II: CI-MPR ligand tested as a possible neutralizing factor,inhibition of rhGALNS uptake into Jurkat cells (in words),Jurkat cells [1],partial inhibition
same,inhibition of uptake,Jurkat cells [2]; 0.6M excess IGF-II,approximately 58%
same,inhibition of uptake,Jurkat cells [2]; 50M excess IGF-II,approximately 95%
same,inhibition of rhGAA-IGF-II uptake (in words),Jurkat cells [2],dose dependent effect
"O=C[C@@H](O)[C@@H](O)[C@H](O)[C@H](O)COP(=O)(O)O [M6P, mannose-6-phosphate, reference compound]",inhibition of rhGALNS uptake into Jurkat cells (in words),Jurkat cells [1],dose dependent effect; also recorded: dose dependently abrogated; also recorded: completely blocked
same,inhibition of rhGALNS uptake,Jurkat cells [1]; 0.5M M6P,approximately 32%
same,inhibition of rhGALNS uptake,Jurkat cells [1]; 5M M6P,approximately 96%
same,IC50,"Jurkat cells [1]; Homo sapiens, Jurkat cells",453 µM
same,inhibition of rhGAA-IGF-II uptake (in words),Jurkat cells [2],partial inhibition
"Cc1cc(-c2ccc(/N=N/c3c(S(=O)(=O)O)cc4cc(S(=O)(=O)O)cc(N)c4c3O)c(C)c2)ccc1/N=N/c1c(S(=O)(=O)O)cc2cc(S(=O)(=O)O)cc(N)c2c1O [trypan blue, reference compound]",fluorescence of cells treated with Alexa488-labeled anti-CD3,Jurkat cells [1]; increasing concentrations of trypan blue,reduced
same,impact on Alexa488-rhGALNS MFI values,Jurkat cells [1]; trypan blue up to 0.4%,no impact
unlabeled GAA: unlabeled acid alpha glucosidase used as a competitor of GAA-IGFII uptake,inhibition of rhGAA-IGF-II uptake (in words),Jurkat cells [2],inhibited
"C=C1[C@@H](C)[C@H]2[C@H](Cc3ccccc3)NC(=O)[C@]23OC(=O)/C=C/[C@H](O)CCC[C@@H](C)C/C=C/[C@H]3[C@@H]1O [cytochalasin B, reference compound]",MFI signal emitted from Alexa488-rhGALNS-treated cells,"Jurkat cells [1]; 374 μM cytochalasin B, pretreated 1 hour",777±4.2
